Here are results for seven compounds from ChEMBL document CHEMBL1817576, “Specific inhibitions of annonaceous acetogenins on class II 3-hydroxy-3-methylglutaryl coenzyme A reductase from Streptococcus pneumoniae” (Bioorg Med Chem, 2011).

SMILES strings stand for the structures.

A short description of experiment [1]: Inhibition of Archaeoglobus fulgidus HMGCR 1 recombinant HMGR class II expressed in Escherichia coli using HMG-CoA as substrate.
A short description of experiment [2]: Inhibition of Streptococcus pneumoniae recombinant HMGR class II expressed in Escherichia coli using HMG-CoA as substrate.
The nature of experiment [3]: Inhibition of Listeria monocytogenes recombinant HMGR class II expressed in Escherichia coli using HMG-CoA as substrate.
Experiment [4] is described as follows: Inhibition of Pseudomonas mevalonii recombinant HMGR class II expressed in Escherichia coli using HMG-CoA as substrate. On the set-up: species or system Pseudomonas sp. 'mevalonii'.
Experiment [5] is described as follows: Inhibition of Staphylococcus aureus recombinant HMGR class II expressed in Escherichia coli using HMG-CoA as substrate.
Experiment [6] relates to Streptococcus pneumoniae. In words: Ratio Ki for lovastatin to compound for recombinant Streptococcus pneumoniae HMGR class II.
Experiment [7] relates to Staphylococcus aureus. In words: Activity of Staphylococcus aureus HMGR class II expressed in Escherichia coli BL21(DE3) using NADPH as substrate after 5 min by microplate reader.
Experiment [8] has as its system Haloferax volcanii. Description: Activity of Haloferax volcanii HMGR class I expressed in Escherichia coli BL21(DE3) using NADPH as substrate after 5 min by microplate reader.
The species entered for experiment [9] is Mesocricetus auratus. In words: Activity of syrian hamsters HMGR class I expressed in Escherichia coli BL21(DE3) using NADPH as substrate after 5 min by microplate reader.
Experiment [10] concerns Streptococcus pneumoniae. Description: Ratio of Kcat to Km for Streptococcus pneumoniae HMGR class II using NADPH substrate.
Experiment [11] relates to Listeria monocytogenes. In words: Activity of Listeria monocytogenes HMGR class II expressed in Escherichia coli BL21(DE3) using NADPH as substrate after 5 min by microplate reader.
The subject of experiment [12] is Listeria monocytogenes. Description: Ratio of Kcat to Km for Listeria monocytogenes HMGR class II using NADPH substrate.
Experiment [13] deals with Streptococcus pneumoniae. In words: Activity of Streptococcus pneumoniae recombinant HMGR class II expressed in Escherichia coli BL21(DE3) using NADPH as substrate after 5 min by microplate reader.
Experiment [14] deals with Staphylococcus aureus. In words: Activity of Staphylococcus aureus HMGR class II expressed in Escherichia coli BL21(DE3) using HMG-CoA substrate after 1 min by microplate reader.
The species entered for experiment [15] is Mesocricetus auratus. In words: Activity of syrian hamsters HMGR class I expressed in Escherichia coli BL21(DE3) using HMG-CoA substrate after 1 min by microplate reader.
In experiment [16] the test system is Streptococcus pneumoniae. In words: Activity of Streptococcus pneumoniae recombinant HMGR class II expressed in Escherichia coli BL21(DE3) using HMG-CoA substrate after 1 min by microplate reader.
Experiment [17] deals with Haloferax volcanii. Description: Activity of Haloferax volcanii HMGR class I expressed in Escherichia coli BL21(DE3) using HMG-CoA substrate after 1 min by microplate reader.
In experiment [18] the test system is Listeria monocytogenes. Description: Activity of Listeria monocytogenes HMGR class II expressed in Escherichia coli BL21(DE3) using HMG-CoA substrate after 1 min by microplate reader.

`CC[C@H](C)C(=O)O[C@H]1C[C@@H](C)C=C2C=C[C@H](C)[C@H](CC[C@@H]3C[C@@H](O)CC(=O)O3)[C@H]21` [LOVASTATIN]: the Ki is 530 µM in [1]; 116 µM in experiment [2]; 130 µM in experiment [3]; 180 µM in experiment [4]; 320 µM in experiment [5]. Further, in experiment [6], the Ratio Ki was 20.
In the case of `CCCCCCCCCC[C@H](O)[C@H]1CC[C@H]([C@H](O)CC[C@H](O)[C@@H]2CC[C@@H](CCCCCCC[C@@H](O)CC3=C[C@H](C)OC3=O)O2)O1` [BULLATALICIN], the Ki in experiment [2] amounted to 17.7 µM.
Turning to `NC(=O)c1ccc[n+]([C@@H]2O[C@H](COP(=O)([O-])OP(=O)(O)OC[C@H]3O[C@@H](n4cnc5c(N)ncnc54)[C@H](OP(=O)(O)O)[C@@H]3O)[C@@H](O)[C@H]2O)c1`, the Michaelis-Menten constant (Km) in experiment [7] is 70 µM; in experiment [8] it was 66 µM; in experiment [9] it was 80 µM; in [11], 12.9 µM; in experiment [13] it was 38.9 µM. Further, the kcat/Km in experiment [10] was found to be 322000 M⁻¹ s⁻¹; in [12], 186000 M⁻¹ s⁻¹. Moreover, the values for the kcat in [11] and in experiment [13] were 22.6 s⁻¹ and 11.9 s⁻¹, respectively.
For `CCCCCC[C@H](O)CCC[C@H](O)[C@H]1CC[C@H]([C@H](O)CC[C@H](O)[C@@H]2CC[C@@H](CCCCCCCCCC3=C[C@H](C)OC3=O)O2)O1` [SQUAMOSTATIN A], the Ki in experiment [2] was determined as 6.45 µM.
`CC(C)(CO[P@@](=O)(O)O[P@@](=O)(O)OC[C@H]1O[C@@H](n2cnc3c(N)ncnc32)[C@H](O)[C@@H]1OP(=O)(O)O)[C@@H](O)C(=O)NCCC(=O)NCCSC(=O)C[C@@](C)(O)CC(=O)O`: the Km was 40 µM in experiment [14]; 20 µM in [15]; 75.9 µM in experiment [16]; 60 µM in [17]; 19.8 µM in experiment [18].
Regarding `CCCCC[C@H](O)CCCC[C@H](O)[C@H]1CC[C@H]([C@H]2CC[C@H]([C@H](O)CCCCCCCCCCCCC3=C[C@H](C)OC3=O)O2)O1` [MOTRILIN], in experiment [2], the Ki was 20.5 µM.
Still for that read-out and setting: under `CCCCCCCCCCC(O)C1CCC(C2CCC(C(O)CCCCCCCC[C@H](O)CC3=C[C@@H](C)OC3=O)O2)O1` (some centres undefined) [ASIMICIN] stands 12.2 µM.

What is called Ki is a dissociation constant, usually derived from enzyme kinetics or from competition with a known ligand. The Km is the substrate concentration at which the rate is half of its maximum. Broadly, the kcat/Km is the turnover number divided by the Michaelis constant. What is called kcat is the number of substrate molecules converted per active site and unit of time at saturation.
